Laboratory results as given in patent publication US9421237B2, “Tripeptide boronic acid or boronic ester, preparative method and use thereof” (PEKING UNIVERSITY, priority 2009, dated 2016).

Legend:
[1] = tested on: Bel-7402 human hepatocarcinoma cell; assay: Preliminary anti-tumor screening in vitro, SRB method; type: cell-based; design: key to Test results: +++: inhibition rates at three doses are greater than 50%; ++: inhibition rates at two doses are greater than 50%; +: inhibition rate at one dose is greater than 50%; details: Bel-7402, SRB
Description: (§1) The test methods used in this test example is the routine method for anti-tumor activities test in pharmaceutical area, for example, referring to the following reference: (J. Immunol Method, 1983, 65, 55).
(§2) Test models: A: MTT method (HL-60 human leukemia); B: SRB method (BGC-823 human gastric cancer); C: SRB method (Bel-7402 human hepatocarcinoma); D: SRB method (KB human nasopharyngeal carcinoma).
(§3) The aforesaid tests were carried out with the compounds of Examples 1-26 in the present invention, test results are shown in Tables 2-5.

[2] = tested on: KB human nasopharyngeal carcinoma cell; assay: as above; type: cell-based; design: key to Test results: +++: inhibition rates at three doses are greater than 50%; ++: inhibition rates at two doses are greater than 50%; +: inhibition rate at one dose is greater than 50%
Description: as §1, §2, §3

[3] = tested on: BGC-823 human gastric cancer cell; assay: as above; type: cell-based; design: key to Test results: +++: inhibition rates at three doses are greater than 50%; ++: inhibition rates at two doses are greater than 50%; +: inhibition rate at one dose is greater than 50%; details: BGC-823, SRB
Description: as §1, §2, §3

[4] = target: T1, 20S proteasome extracted from rat liver, chymotryptic-like (CT-L) activity (Rattus norvegicus, UniProt P18421+P28075); assay: Proteasome inhibition, chymotryptic-like (CT-L) activity, fluorescent peptide Suc-leu-leu-Val-Tyr-AMC; type: biochemical; details: rat liver 20S proteasome, 37° C., 1 h
T1 construct: 20S proteasome extracted from rat liver; from tissue; host or cells: rat liver
Description: (§4) The activities of the proteasome were assayed using fluorescent peptides: Suc-leu-leu-Val-Tyr-AMC (Suc represents succinyl, and AMC represents 7-amino-4-methylcoumarin, purchased from SIGMA) for determining chymotryptic-like (CT-L) activity; Z-Ala-Arg-Arg-AMC (Z represents benzyloxycarbonyl, purchased from Calbiochem) for determining trypsin-like (TL) activity; and Z-leu-leu-Glu-βNA (βNA represents β-naphtylamide, purchased from SIGMA) for determining peptidyl-glutamyl-peptide-hydrolyzing (PGPH) enzyme activity.
(§5) Method for the aforesaid activity assays is as follows: 1 μg of 20S proteasome extracted from rat liver was incubated with a 100 μL solution containing various concentrations of compounds, 50 μM fluorescent peptides and 20 mM Tris-HCl at 37° C. for 1 h, respectively. The fluorescence released from AMC and RNA reagents was measured by a spectrofluorimeter Fluostar OPTIMA and BMG Germany at excitation/emission wavelengths of 380/440 nm and 335/410 nm, respectively. 0.1% DMSO was used as a solvent control. Compared with the fluorescence of solvent control, an inhibition rate was calculated.

[5] = tested on: HL-60 human leukemia cell; assay: Preliminary anti-tumor screening in vitro, MTT method; type: cell-based; design: key to Test results: +++: inhibition rates at three doses are greater than 50%; ++: inhibition rates at two doses are greater than 50%; +: inhibition rate at one dose is greater than 50%; details: HL-60, MTT
Description: as §1, §2, §3

[6] = target: T2, 20S proteasome extracted from rat liver, trypsin-like (TL) activity (Rattus norvegicus, UniProt P40112+Q9JHW0); assay: Proteasome inhibition, trypsin-like (TL) activity, fluorescent peptide Z-Ala-Arg-Arg-AMC; type: biochemical; details: rat liver 20S proteasome, 37° C., 1 h; read-out: T-L (IC50)
T2 construct: 20S proteasome extracted from rat liver; from tissue; host or cells: rat liver
Description: as §4
as §5, with “calculated. Said assays used anticancer drug bortezomib (leukemia drug), namely PS341 as compound for positive control.” for “calculated.”

[7] = target: T3, 20S proteasome extracted from rat liver, peptidyl-glutamyl-peptide-hydrolyzing (PGPH) enzyme activity (Rattus norvegicus, UniProt P28073+Q9JHW0); assay: Proteasome inhibition, PGPH activity, fluorescent peptide Z-leu-leu-Glu-βNA; type: biochemical; details: rat liver 20S proteasome, 37° C., 1 h
T3 construct: 20S proteasome extracted from rat liver; from tissue; host or cells: rat liver
Description: as §4
as §5, with “calculated. Said assays used anticancer drug bortezomib (leukemia drug), namely PS341 as compound for positive control.” for “calculated.”

[8] = tested on: murine H22 cells; assay: In vivo anti-tumor activity, H22 tumor in ICR mice, oral administration; details: 1 mg/kg orally once per day for 10 days
Description: Animal: ICR mice, half male and half female (18-22 g), provided by Laboratory Animal Science Department of Peking Medical University.
Tumor cell strain: murine H22 cells were provided by cell bank of pharmacological group of the State Key Laboratory of Natural and Biomimetic Drugs.
Method: Murine tumor cells were taken to be treated, and diluted to 5×10^6 cells/ml after treatment. The diluted tumor cells solution was inoculated to the left forelimb oxter of the mice with 0.2 ml/mouse under aseptic condition. 24 h after inoculation, the mice were divided into groups and orally administered once per day to the mice in each group for 10 days. At the 12th day, the tumors were peeled off and weighed, and the average weight of the tumor, standard deviation (SD) and p-value of each group were calculated.

[9] = number of doses with inhibition > 50%
[10] = Homo sapiens, 0.05 μM, read-out: Inhibition rate %
[11] = Homo sapiens, 0.5 μM, read-out: Inhibition rate %
[12] = Homo sapiens, 5 μM, read-out: Inhibition rate %

SMILES	IC50 [4] [nM]	IC50 [6] [nM]	melting point [°C]	IC50 [7] [nM]	also measured
CC(C)C[C@H](NC(=O)[C@H](CC(C)C)NC(=O)[C@H](Cc1ccc2ccccc2c1)NC(=O)c1cnccn1)B1OC2CC3C[C@@H](C3(C)C)[C@]2(C)O1 (stereo partly drawn) [Compound 5m, Pinanediol N-pyrazineformyl-L-naphthylalanyl-L-leucyl-L-leucine Borate]	0.345 ± 0.106	> 20	99 to 100	–	Test results [1, 9]: ++; inhibition at 0.05 µM [1, 10]: 6.49%; inhibition at 0.5 µM [1, 11]: 52.6%; inhibition at 5 µM [1, 12]: 95.7%; inhibition at 0.05 µM [2, 10]: 8.59%; inhibition at 0.5 µM [2, 11]: 85.6%; inhibition at 5 µM [2, 12]: 96.2%; Test results [2, 9]: ++; Test results [3, 9]: ++; inhibition at 0.05 µM [3, 10]: 46%; inhibition at 0.5 µM [3, 11]: 84.5%; inhibition at 5 µM [3, 12]: 97.2%; Test results [5, 9]: ++; inhibition at 0.05 µM [5, 10]: 11.2%; inhibition at 0.5 µM [5, 11]: 82.7%; inhibition at 5 µM [5, 12]: 87.9%
CC(C)C[C@H](NC(=O)[C@H](Cc1ccccc1)NC(=O)[C@H](Cc1ccccc1)NC(=O)c1cnccn1)B(O)O [Compound 6a, N-pyrazineformyl-L-phenylalanyl-L-phenylalanyl-L-leucine Boronic Acid]	0.546 ± 0.077	> 20	112 to 114	10.9 ± 3.21	–
CC(C)C[C@H](NC(=O)[C@H](Cc1ccccc1)NC(=O)[C@H](CC(C)C)NC(=O)c1cnccn1)B(O)O [Compound 6e, N-pyrazineformyl-L-leucyl-L-phenylalanyl-L-leucine Boronic Acid]	0.19 ± 0.017	> 20	113 to 116	5.14 ± 2.17	–
CC(C)C[C@H](NC(=O)[C@H](Cc1ccccc1)NC(=O)[C@H](Cc1c[nH]c2ccccc12)NC(=O)c1cnccn1)B(O)O [Compound 6i, N-pyrazineformyl-L-tryptophyl-L-phenylalanyl-L-leucine Boronic Acid]	> 20	> 20	–	> 20	–
CC(C)C[C@H](NC(=O)[C@H](Cc1c[nH]c2ccccc12)NC(=O)[C@H](Cc1ccccc1)NC(=O)c1cnccn1)B(O)O [Compound 6j, N-pyrazineformyl-L-phenylalanyl-L-tryptophyl-L-leucine Boronic Acid]	> 20	> 20	–	> 20	–
CC(C)C[C@H](NC(=O)[C@H](CC(C)C)NC(=O)[C@H](CC(C)C)NC(=O)c1cnccn1)B(O)O [Compound 6l, N-pyrazineformyl-L-leucyl-L-leucyl-L-leucine Boronic Acid]	> 20	> 20	–	> 20	–
CC(C)C[C@H](NC(=O)[C@H](Cc1ccccc1)NC(=O)c1cnccn1)B(O)O [PS341, Bortezomib, reference compound]	–	> 20	–	–	Body weight (g) (X ± SD) ([8]; ICR mice with H22): 0.65 ± 2.07 g; Inhibition rate (%) ([8]; tumors weighed at 12th day): 62.05%; Tumor weight (g) (X ± SD) ([8]; tumors weighed at 12th day): 0.47 ± 0.20 g
